# Patent US7435747B2, “Guanidine and amidine derivatives as factor Xa inhibitors” (Sanofi-Aventis Deutschland GmbH, priority 2000, dated 2008)
# Target: T1, human factor Xa (Homo sapiens, UniProt P00742)
# T1 construct: 25 μl human factor Xa (Enzyme Research Laboratories, Inc; South Bend, Ind.); purchased Enzyme Research Laboratories, Inc; South Bend, Ind
# Assay: Factor Xa chromogenic assay (substrate S-2765)
# Type: biochemical
# Conditions: Ki calculated from IC50 corrected for substrate competition; 25° C., 0.5 nM enzyme, 140 μM substrate S-2765; read-out: Ki(FXa), inhibition constant for inhibition of factor Xa
# Method: Purified enzymes are used in chromogenic assays.
# The IC50 was determined by combining in appropriate wells of a Costar half-area microtiter plate 25 μl human factor Xa (Enzyme Research Laboratories, Inc.; South Bend, Ind.) in TBS-PEG; 40 μl 10% (v/v) DMSO in TBS-PEG (uninhibited control) or various concentrations of the compound to be tested diluted in 10% (v/v) DMSO in TBS-PEG; and substrate S-2765 (N(α)-benzyloxycarbonyl-D-Arg-Gly-L-Arg-p-nitroanilide; Kabi Pharmacia, Inc.; Franklin, Ohio) in TBS-PEG.
# The assay was performed by pre-incubating the compound of formula I plus enzyme for 10 min. Then the assay was initiated by adding substrate to obtain a final volume of 100 μl. The initial velocity of chromogenic substrate hydrolysis was measured by the change in absorbance at 405 nm using a Bio-tek Instruments kinetic plate reader (Ceres UV900HDi) at 25° C. during the linear portion of the time course (usually 1.5 min after addition of substrate). The enzyme concentration was 0.5 nM and substrate concentration was 140 μM.
# T1 sequence (P00742 235-488 limits assumed): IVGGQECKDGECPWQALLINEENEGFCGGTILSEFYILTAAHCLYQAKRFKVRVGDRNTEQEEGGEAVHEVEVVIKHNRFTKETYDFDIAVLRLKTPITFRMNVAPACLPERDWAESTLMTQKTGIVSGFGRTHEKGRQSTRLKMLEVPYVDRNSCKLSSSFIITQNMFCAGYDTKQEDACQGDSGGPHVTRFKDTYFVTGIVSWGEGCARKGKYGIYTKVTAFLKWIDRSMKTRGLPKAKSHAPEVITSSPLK
# T1 sequence (P00742 41-179 partner limits assumed): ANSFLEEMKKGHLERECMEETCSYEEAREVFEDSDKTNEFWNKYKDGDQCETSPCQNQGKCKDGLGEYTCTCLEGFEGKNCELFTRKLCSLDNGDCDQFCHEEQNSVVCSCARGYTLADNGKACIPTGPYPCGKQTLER
row,Structure (SMILES),Ki [nM]
1,"CC(=N)N1CCC(CNC(=O)c2ccc(C)c(OCCc3ccc(Cl)cc3Cl)c2)CC1 [Example 12, 3-[2-(2,4-Dichloro-phenyl)-ethoxy]-N-[1-(10-imino-ethyl)-piperidin-4-ylmethyl]-4-methyl-benzamide; compound with trifluoro-acetic acid]",140
2,"Cc1ccc(C(=O)NCC2CCN(C(=N)N)CC2)cc1OCCc1ccc(Cl)cc1Cl [Example 13, N-(1-Carbamimidoyl-piperidin-4-ylmethyl)-3-[2-(2,4-dichloro-phenyl)-ethoxy]-4-methyl-benzamide; compound with trifluoro-acetic acid]",173

# Same assay, conditions: read-out: Ki(FXa), inhibition constant for inhibition of factor Xa
row,Structure (SMILES),Ki [nM]
1,"COC(=O)[C@@H](NC(=O)c1cc(O)cc(OCCc2ccc(Cl)cc2Cl)c1)C1CCN(C(=N)N)CC1 [Example 1, (S)-(1-Carbamimidoyl-piperidin-4-yl)-{3-[2-(2,4-dichloro-phenyl)-ethoxy]-5-hydroxy-benzoylamino}-acetic acid methyl ester]",2120
2,N=C(N)N1CCC(CNC(=O)c2cc(O)cc(OCCc3ccc(Cl)cc3Cl)c2)CC1 [Example 4],464
3,COC(=O)[C@H](CC1CCN(C(=N)N)CC1)NC(=O)c1cc(O)c(C)c(OCCCc2ccc(Cl)cc2Cl)c1 [Example 6],2280

# The next lines start with the values.
row,Ki [nM],Structure (SMILES)
1,13.7,"N=C(N)N1CCC(CNC(=O)c2cc(O)c(Br)c(OCCc3ccc(Cl)cc3Cl)c2)CC1 [Example 2, 4-Bromo-N-(1-carbamimidoyl-piperidin-4-ylmethyl)-3-[2-(2,4-dichloro-phenyl)-ethoxy]-5-hydroxy-benzamide]"
2,58.5,"Cc1c(O)cc(C(=O)NCC2CCN(C(=N)N)CC2)cc1OCCc1ccc(Cl)cc1Cl [Example 3, N-(1-Carbamimidoyl-piperidin-4-ylmethyl)-3-[2-(2,4-dichloro-phenyl)-ethoxy]-5-hydroxy-4-methyl-benzamide]"
